Molecular target: T1, Solute carrier family 22 member 12 (Homo sapiens, UniProt Q96S37)
T1 sequence (Q96S37 whole entry): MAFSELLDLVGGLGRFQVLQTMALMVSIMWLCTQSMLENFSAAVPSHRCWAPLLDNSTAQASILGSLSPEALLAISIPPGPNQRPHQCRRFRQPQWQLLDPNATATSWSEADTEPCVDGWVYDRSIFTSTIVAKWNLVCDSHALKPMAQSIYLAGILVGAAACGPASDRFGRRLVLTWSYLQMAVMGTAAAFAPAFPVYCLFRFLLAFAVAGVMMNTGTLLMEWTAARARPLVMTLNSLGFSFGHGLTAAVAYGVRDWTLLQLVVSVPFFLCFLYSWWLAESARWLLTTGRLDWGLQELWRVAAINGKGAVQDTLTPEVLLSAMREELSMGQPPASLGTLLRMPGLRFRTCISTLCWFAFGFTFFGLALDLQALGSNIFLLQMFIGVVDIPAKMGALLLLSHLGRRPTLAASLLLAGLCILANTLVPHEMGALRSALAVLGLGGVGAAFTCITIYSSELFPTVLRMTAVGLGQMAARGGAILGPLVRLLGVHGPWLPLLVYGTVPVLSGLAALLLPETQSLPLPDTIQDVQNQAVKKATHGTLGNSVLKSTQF
Test: 150 microliter of cell lysate (100 mM of NaOH) was added in each well. Cell plate was placed on a vibrating plate and vibrated for 10 min at a speed of 600 rpm such that the cells were completely lysed. The cell plate was put in a centrifuge and spun for 5 min at a speed of 1000 rpm, then 45 microliter of supernatant was sucked out from each well and transferred to 96-well plate (Isoplate-96 Microplate from PerkinElmer).

IC50: > 1 µM
Structure (SMILES): N#Cc1ccc(-c2ccccc2S(=O)(=O)CC2(CC(=O)O)CC2)cc1
